Measurements reported in US20170058314A1, “NOVEL METHODOLOGY FOR IDENTIFYING ANTI-PERSISTER ACTIVITY AND ANTIMICROBIAL SUSCEPTIBILITY FOR BORRELIA BURGDORFERI AND OTHER BACTERIA” (priority 2014, published 2017).

What was measured:
[1] = tested on: stationary phase B. burgdorferi persisters (strain B31); test: SYBR Green I/PI viability assay (plate reader), FDA-approved drug library screen
[2] = tested on: log phase and stationary phase B. burgdorferi culture; test: Antibiotic exposure assay, SYBR Green I/PI (drugs alone and combinations)
In short: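 Stationary-phase or round-body B. burgdorferi exposed 7 days at 33 °C to drugs alone or combined at 10 μg/mL each (single-compound screen: 50 μM final). Viability by SYBR Green I/PI, ex 485, em 535/635 nm; percent live from regression of green/red ratio, corrected by direct microscopy counting.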

[3] = tested on: round body form of B. burgdorferi; test: SYBR Green I/PI assay on amoxicillin-induced round body form
[4] = tested on: stationary phase B. burgdorferi persisters (strain B31); test: epifluorescence microscope counting after SYBR Green I/PI staining, FDA drug screen; details: Borreliella burgdorferi, 168 h, read-out: Residual viable cells (epifluorescence microscope counting)
[5] = tested on: B. burgdorferi log and stationary phase cultures; test: epi-fluorescence microscope counting after antibiotic exposure (persister frequency, planktonic forms); format: cell-based, Borrelia burgdorferi
[6] = tested on: stationary phase B. burgdorferi; test: Subculture test of drug-treated stationary phase B. burgdorferi; format: cell-based, Borrelia burgdorferi; details: 10 μg/mL
Description: Seven-day-old B. burgdorferi culture (1×10^7 spirochetes/mL) (500 μL) was treated with drugs or drug combinations in Eppendorf tubes. After incubation at 33° C. for 7 days without shaking, the cells were collected by centrifugation and rinsed with 1 mL fresh BSK-H medium followed by resuspension in 500 μL fresh BSK-H medium without antibiotics. Then 50 μL of cell suspension was transferred to 1 mL fresh BSK-H medium for subculture at 33° C. for 2 weeks. Cell proliferation was assessed using SYBR Green I/PI assay and bacterial counting chamber (Hausser Scientific Partnership) by microscopy as described above.

[7] = tested on: stationary phase B. burgdorferi persisters (strain B31); test: NCI compound library rescreen, epifluorescence microscope counting; details: Borreliella burgdorferi, 168 h
[8] = tested on: B. burgdorferi (growing, strain B31); test: MIC determination, standard microdilution method; format: cell-based, Borrelia burgdorferi; details: Borreliella burgdorferi; growing B. burgdorferi; read-out: MIC
[9] = 50 μM, 7 days, stationary phase
[10] = 10 μg/mL drugs or combinations, 7 days
[11] = 7 days treatment, then subculture

C[C@H]1c2cccc(O)c2C(=O)C2=C(O)[C@]3(O)C(=O)C(C(N)=O)=C(O)[C@@H](N(C)C)[C@@H]3[C@@H](O)[C@@H]21 [Doxycycline]
Ratio of Green/Red fluorescence, Primary screening [1, 9]: 7.62
Ratio of Green/Red fluorescence, Rescreening (first column) [1, 9]: 7.35
Ratio of Green/Red fluorescence, Rescreening (second column) [1, 9]: 7.58
viability at 50 µM ([1]; Borreliella burgdorferi, 168 h, read-out: Residual viable cells (regression equation, SYBR Green I/PI assay)): 67%
Live cell %, ten day old stationary phase culture (in brackets) [2, 10]: 72%
viability at 10 µg/mL ([2]; Borreliella burgdorferi, 168 h, read-out: Live Cell % (residual viable B. burgdorferi), ten-day-old stationary phase culture enriched with micro-colonies, 10 μg/mL each drug, 7 days): 72%
Live cell %, round body form [3, 10]: 49%
viability at 50 µM ([3]; Borreliella burgdorferi, 168 h, read-out: Residual viable cells (SYBR Green I/PI assay)): 42%
Ratios of green/red fluorescence, Primary screening ([3]; round body form, 50 μM, 7 days): 6.34
Ratios of green/red fluorescence, Rescreening (first column) ([3]; round body form, 50 μM, 7 days): 6.39
Ratios of green/red fluorescence, Rescreening (second column) ([3]; round body form, 50 μM, 7 days): 6.67
viability at 50 µM [4]: 75%
persister frequency (percentage of live cells after antibiotic treatment, in brackets) ([5]; 3-day log phase culture): (6.4%)
persister frequency (in brackets) ([5]; 7-day stationary phase culture): (24%)
persister frequency (in brackets) ([5]; 10-day stationary phase culture): (~25%)
planktonic form cells remaining green (live) ([5]; 10-day-old stationary phase culture, 10 μg/mL, 7 days, FIG. 17A): about 71%
G/R ratio immediately after treatment ([6]; 7 days): 6.71
G/R ratio after 7 day subculture [6, 11]: 6.23
G/R ratio after 15 day subculture [6, 11]: 6.89
Spirochetes after 7 day subculture (microscope counting) [6, 11]: 9 × 10^5
Spirochetes after 15 day subculture (microscope counting) [6, 11]: ~5×10^6
Spirochetes after 15 day subculture (microscope counting) ([6]; 7 days treatment, then subculture, listed as Dox): 4 × 10^6
viability at 10 µg/mL ([6]; Borreliella burgdorferi, 168 h, seven-day-old culture, 7 days, read-out: Residual viable cells (epifluorescence microscope counting)): 67%
viability at 50 µM ([7]; read-out: Activity against persisters (residual viable cell percentage)): 77%
viability at 20 µM ([7]; read-out: Residual viable cells (%) 20 μM (epifluorescence microscope counting)): 77%
viability at 50 µM ([7]; read-out: Residual viable cells (%) 50 μM (epifluorescence microscope counting)): 77%
viability at 50 µM ([7]; read-out: Residual viable cells (epifluorescence microscope counting)): 77%
MIC [8]: ≤ 0.25 mg/L
